Measurements published in patent US20080145876A1, “POLY(ETHYLENE GLYCOL) ANTI-BODY DETECTION ASSAYS AND KITS FOR PERFORMING THEREOF” (University of Southern California, priority 2006, published 2008).

Key:
[1] = system: anti-PEG; experiment: Inhibition of PEG-RBC agglutination by polymers/small ethers added to anti-PEG positive sera (anti-PEG epitope study, tube test); format: binding, human; settings: for Effect on PEG-RBC agglutination (inhibition): three 4+ anti-PEG positive sera, 1% (w/v) final concentration; for Agglutination Score of PEG-RBCs: compound added at 1% w/v, PBS control 4+
Method: One drop of RBCs (PEG-coated or control (uncoated) RBCs) at 5% hct were added to 2 drops of plasma. Samples were incubated at room temperature for 15 minutes and then centrifuged at 1000×g for 1 minute. Agglutination of PEG-coated or uncoated (control) RBCs by each plasma sample was scored according to the 0-4+ scale.
The polymer and small ether solutions were added to anti-PEG positive sera at a 1:1 (v/v) ratio giving a final polymer/small ether concentration of 1% (w/v) and incubated for 30 minutes at room temperature. […] Inhibition of agglutination by the smallest ether molecule tested determined the anti-PEG epitope.

[2] = ASNase activity in sera of PEG-ASNase-treated ALL patients (microplate technique) versus anti-PEG status; format: in vivo, human
Method: Stored serum samples were collected from 28 pediatric acute lymphoblastic leukemia (ALL) patients who received the chemotherapy agent, PEG-conjugated asparaginase (PEG-ASNase). Sera were assayed for ASNase activity using a microplate technique. Testing for anti-PEG was performed by serology as described in Example 1 and by flow cytometry as described in Example 3.

Q: With CCOCCOCCOCC [Diethylene Glycol Diethyl Ether] as the molecule, how does the “Effect on PEG-RBC agglutination (inhibition)” value (shortened to “Effect … (inhibition)”) [1] read?
A: reduced PEG-RBC agglutination (4+ to 2+)

Q: For OCCOCCO [Diethylene Glycol], which “Effect … (inhibition)” value [1] is on record?
A: no effect

Q: For OCCO [Ethlyene Glycol], which “Effect … (inhibition)” value [1] is on record?
A: no effect

Q: Which “Agglutination Score of PEG-RBCs” value ([1]; Anti-PEG Positive Donor A) does the source give for COCCOCCOCCOCCOC [Tetraethylene Glycol Dimethyl Ether] here?
A: 0^

Q: And the “Agglutination Score of PEG-RBCs” value ([1]; Anti-PEG Positive Donor B)?
A: 0^

Q: What about the “Agglutination Score of PEG-RBCs” value ([1]; Anti-PEG Positive Donor C) of the same molecule?
A: 0^

Q: What about the “Effect … (inhibition)” value [1] of the same molecule?
A: Complete inhibition of agglutination

Q: What does the source list for COCCOCCOCCOC [Triethylene Glycol Dimethyl Ether]?
A: Agglutination Score of PEG-RBCs ([1]; Anti-PEG Positive Donor A): 0^; Agglutination Score of PEG-RBCs ([1]; Anti-PEG Positive Donor B): 0^; Agglutination Score of PEG-RBCs ([1]; Anti-PEG Positive Donor C): 0^; Effect on PEG-RBC agglutination (inhibition) [1]: Complete inhibition of agglutination

Q: With OCCOCCOCCO [Triethylene Glycol] as the molecule, how does the “Effect … (inhibition)” value [1] read?
A: no effect

B1: PEG-asparaginase: chemotherapy agent, PEG-conjugated asparaginase (PEG-ASNase) (conjugate, UniProt P00805 23-348, looked up)
L-asparaginase 2: LPNITILATGGTIAGGGDSATKSNYTVGKVGVENLVNAVPQLKDIANVKGEQVVNIGSQDMNDNVWLTLAKKINTDCDKTDGFVITHGTDTMEETAYFLDLTVKCDKPVVMVGAMRPSTSMSADGPFNLYNAVVTAADKASANRGVLVVMNDTVLDGRDVTKTNTTDVATFKSVNYGPLGYIHNGKIDYQRTPARKHTSDTPFDVSKLNELPKVGIVYNYANASDLPAKALVDAGYDGIVSAGVGNGNLYKSVFDTLATAAKTGTAVVRSSRVPTGATTQDAEVDDAKYGFVASGTLNPQKARVLLQLALTQTKDPQQIQQIFNQY
modifications: PEG conjugate
Q: Which results are given for B1?
A: mean ASNase activity ([2]; IgM anti-PEG positive patients by flow cytometry (n=13)): 12 U/L; ASNase activity ([2]; all anti-PEG positive patient sera, serology or flow cytometry): low or undetectable; mean ASNase activity ([2]; anti-PEG negative patients by flow cytometry (n=15)): 438 U/L; mean ASNase activity ([2]; anti-PEG negative patients by serology (n=19)): 353 U/L; ASNase activity ([2]; anti-PEG positive patients by serology (n=9)): undetectable; ASNase activity ([2]; one anomalous sample, weakly positive for anti-PEG IgM and positive for anti-ASNase): 123 U/L
